The numbers were not newly measured in patent publication US8703192B2, “Dosage form containing pantoprazole as active ingredient” (Takeda GmbH, priority 2003, dated 2014), which cites them from elsewhere.

The conditions of this series: in comparison to pantoprazole itself or to pantoprazole sodium sesquihydrate.

`COc1ccnc(C[S+]([O-])c2nc3cc(OC(F)F)ccc3[n-]2)c1OC.COc1ccnc(C[S+]([O-])c2nc3cc(OC(F)F)ccc3[n-]2)c1OC.O.O.[Mg+2]` (stereo not shown) [Magnesium bis[5-[difluoromethoxy]-2-[[3,4-dimethoxy-2-pyridinyl]-methyl]sulfinyl]-1H-benzimidazolide]dihydrate]: the stability properties entry is “improved stability properties”.
